From the NIST ThermoML archive (doi:10.1016/j.jct.2010.05.002)
Several values for one entry are separate records, joined by “and”; a condition that tells them apart may be missing. Identical values can stand only once.

Experiment: molar heat capacity at constant pressure
Conditions: 101.33 kPa, Vacuum adiabatic calorimetry

Cc1ccc(-c2ccccc2)cc1 [4-methylbiphenyl]
Conditions	molar heat capacity at constant pressure
200.03 K, Crystal 2	158.25 J/K/mol
201.21 K, Crystal 2	159.08 J/K/mol
202.67 K, Crystal 2	160.39 J/K/mol
204.13 K, Crystal 2	161.16 J/K/mol
205.59 K, Crystal 2	161.88 J/K/mol
207.05 K, Crystal 2	163.01 J/K/mol
208.5 K, Crystal 2	164.47 J/K/mol
209.95 K, Crystal 2	165.42 J/K/mol
211.41 K, Crystal 2	166.95 J/K/mol
212.86 K, Crystal 2	167.72 J/K/mol
214.31 K, Crystal 2	168.81 J/K/mol
215.75 K, Crystal 2	169.75 J/K/mol
217.19 K, Crystal 2	170.91 J/K/mol
218.63 K, Crystal 2	172.34 J/K/mol
220.07 K, Crystal 2	173.54 J/K/mol
221.51 K, Crystal 2	174.81 J/K/mol
224.33 K, Crystal 2	177.09 J/K/mol
225.77 K, Crystal 2	178.63 J/K/mol
227.21 K, Crystal 2	179.26 J/K/mol
228.64 K, Crystal 2	180.46 J/K/mol
230.07 K, Crystal 2	181.65 J/K/mol
231.5 K, Crystal 2	183.05 J/K/mol
232.92 K, Crystal 2	183.59 J/K/mol
234.35 K, Crystal 2	184.76 J/K/mol
235.77 K, Crystal 2	186 J/K/mol
237.2 K, Crystal 2	186.68 J/K/mol
238.62 K, Crystal 2	188.83 J/K/mol
240.04 K, Crystal 2	189.96 J/K/mol
241.46 K, Crystal 2	190.95 J/K/mol
242.88 K, Crystal 2	191.92 J/K/mol
245.71 K, Crystal 2	194.12 J/K/mol
247.06 K, Crystal 2	195.69 J/K/mol
248.47 K, Crystal 2	196.82 J/K/mol
249.87 K, Crystal 2	197.8 J/K/mol
251.28 K, Crystal 2	198.95 J/K/mol
252.68 K, Crystal 2	199.51 J/K/mol
254.07 K, Crystal 2	203.15 J/K/mol
255.46 K, Crystal 2	205.87 J/K/mol
256.86 K, Crystal 2	204.64 J/K/mol
258.26 K, Crystal 2	207.95 J/K/mol
259.65 K, Crystal 2	209.9 J/K/mol
261.05 K, Crystal 2	211.67 J/K/mol
262.45 K, Crystal 2	213.5 J/K/mol
263.84 K, Crystal 2	216.69 J/K/mol
265.26 K, Crystal 2	218.04 J/K/mol
265.74 K, Crystal 2	214.98 J/K/mol
266.62 K, Crystal 2	215.48 J/K/mol
267.35 K, Crystal 2	216.35 J/K/mol
268.06 K, Crystal 2	216.34 J/K/mol
268.77 K, Crystal 2	218.41 J/K/mol
269.46 K, Crystal 2	217.65 J/K/mol
270.14 K, Crystal 2	220.43 J/K/mol
270.81 K, Crystal 2	221.73 J/K/mol
271.48 K, Crystal 2	224.8 J/K/mol
272.13 K, Crystal 2	226.98 J/K/mol
272.79 K, Crystal 2	228.68 J/K/mol
273.44 K, Crystal 2	230.85 J/K/mol
274.09 K, Crystal 2	231.46 J/K/mol
274.73 K, Crystal 2	233.58 J/K/mol
275.38 K, Crystal 2	235.91 J/K/mol
276.02 K, Crystal 2	236.58 J/K/mol
276.54 K, Crystal 2	238.77 J/K/mol
277.18 K, Crystal 2	240.39 J/K/mol
277.82 K, Crystal 2	243.02 J/K/mol
278.45 K, Crystal 2	244.38 J/K/mol
279.09 K, Crystal 2	245.39 J/K/mol
279.72 K, Crystal 2	247.06 J/K/mol
280.35 K, Crystal 2	249.06 J/K/mol
280.98 K, Crystal 2	250.28 J/K/mol
281.61 K, Crystal 2	250.82 J/K/mol
282.22 K, Crystal 2	253.9 J/K/mol
282.84 K, Crystal 2	255.25 J/K/mol
283.47 K, Crystal 2	256.25 J/K/mol
284.09 K, Crystal 2	257.26 J/K/mol
284.71 K, Crystal 2	258.2 J/K/mol
285.32 K, Crystal 2	261 J/K/mol
285.94 K, Crystal 2	262.67 J/K/mol
286.41 K, Crystal 2	265.19 J/K/mol
287.03 K, Crystal 2	266.14 J/K/mol
287.64 K, Crystal 2	267.86 J/K/mol
288.24 K, Crystal 2	270.21 J/K/mol
289.45 K, Crystal 2	271.63 J/K/mol
290.05 K, Crystal 2	274.89 J/K/mol
290.65 K, Crystal 2	278.67 J/K/mol
291.25 K, Crystal 2	281.37 J/K/mol
291.85 K, Crystal 2	283.3 J/K/mol
292.44 K, Crystal 2	287.63 J/K/mol
293.04 K, Crystal 2	291.45 J/K/mol
293.63 K, Crystal 2	298.7 J/K/mol
294.21 K, Crystal 2	301.08 J/K/mol
294.8 K, Crystal 2	306.74 J/K/mol
295.38 K, Crystal 2	315.73 J/K/mol
295.81 K, Crystal 2	323.56 J/K/mol
296.38 K, Crystal 2	356.89 J/K/mol
296.78 K, Crystal 2	604.38 J/K/mol
298.45 K, Crystal 1	252.48 J/K/mol
299.16 K, Crystal 1	242.36 J/K/mol
299.72 K, Crystal 1	239.35 J/K/mol
300.27 K, Crystal 1	238.79 J/K/mol
300.79 K, Crystal 1	244.43 J/K/mol
301.28 K, Crystal 1	240.52 J/K/mol
301.77 K, Crystal 1	242.22 J/K/mol
302.25 K, Crystal 1	243.96 J/K/mol
302.73 K, Crystal 1	242.88 J/K/mol
303.21 K, Crystal 1	243.63 J/K/mol
303.43 K, Crystal 1	242.23 J/K/mol
303.9 K, Crystal 1	242.44 J/K/mol
304.37 K, Crystal 1	241.56 J/K/mol
304.84 K, Crystal 1	243.77 J/K/mol
305.31 K, Crystal 1	244.44 J/K/mol
305.78 K, Crystal 1	244.15 J/K/mol
306.24 K, Crystal 1	244.23 J/K/mol
306.7 K, Crystal 1	245.51 J/K/mol
307.16 K, Crystal 1	246.05 J/K/mol
307.62 K, Crystal 1	246.17 J/K/mol
308.08 K, Crystal 1	246.5 J/K/mol
308.53 K, Crystal 1	247 J/K/mol
308.98 K, Crystal 1	247.25 J/K/mol
309.43 K, Crystal 1	248.47 J/K/mol
309.88 K, Crystal 1	249.54 J/K/mol
310.32 K, Crystal 1	249.25 J/K/mol
310.48 K, Crystal 1	249.45 J/K/mol
310.92 K, Crystal 1	251.3 J/K/mol
311.36 K, Crystal 1	251.5 J/K/mol
312.31 K, Crystal 1	256.21 J/K/mol
313.97 K, Crystal 1	264.83 J/K/mol
314.78 K, Crystal 1	273.5 J/K/mol
315.57 K, Crystal 1	291.72 J/K/mol
321.28 K, Liquid	289.67 J/K/mol
322.04 K, Liquid	290.27 J/K/mol
322.79 K, Liquid	290.67 J/K/mol
323.53 K, Liquid	290.73 J/K/mol
324.28 K, Liquid	291.55 J/K/mol
325.01 K, Liquid	291.28 J/K/mol
325.74 K, Liquid	291.46 J/K/mol
326.47 K, Liquid	293.2 J/K/mol
327.19 K, Liquid	292.01 J/K/mol
327.91 K, Liquid	293.22 J/K/mol
328.27 K, Liquid	292.87 J/K/mol
328.98 K, Liquid	293.44 J/K/mol
329.68 K, Liquid	293.4 J/K/mol
330.38 K, Liquid	294.27 J/K/mol
331.07 K, Liquid	293.42 J/K/mol
331.76 K, Liquid	294.54 J/K/mol
332.45 K, Liquid	294.83 J/K/mol
333.13 K, Liquid	295.75 J/K/mol
333.8 K, Liquid	295.68 J/K/mol
334.47 K, Liquid	295.42 J/K/mol
336.41 K, Liquid	298.11 J/K/mol
337.06 K, Liquid	298.19 J/K/mol
337.7 K, Liquid	298.22 J/K/mol
338.34 K, Liquid	298.05 J/K/mol
338.57 K, Liquid	298.82 J/K/mol
339.03 K, Liquid	300.03 J/K/mol
339.2 K, Liquid	299.1 J/K/mol
340.45 K, Liquid	299.61 J/K/mol
341.07 K, Liquid	299.94 J/K/mol
341.68 K, Liquid	301.45 J/K/mol
342.29 K, Liquid	300.21 J/K/mol
342.89 K, Liquid	301.42 J/K/mol
343.49 K, Liquid	302.55 J/K/mol
344.08 K, Liquid	301.94 J/K/mol
344.67 K, Liquid	303 J/K/mol
345.25 K, Liquid	303.08 J/K/mol
346.41 K, Liquid	304.11 J/K/mol
346.98 K, Liquid	304.03 J/K/mol
347.55 K, Liquid	304.56 J/K/mol
347.66 K, Liquid	303.66 J/K/mol
348.78 K, Liquid	306.1 J/K/mol
349.3 K, Liquid	305.23 J/K/mol
349.88 K, Liquid	305.3 J/K/mol
350.42 K, Liquid	305.41 J/K/mol
350.96 K, Liquid	306.68 J/K/mol
351.49 K, Liquid	306.74 J/K/mol
352.02 K, Liquid	307.44 J/K/mol
352.55 K, Liquid	307.72 J/K/mol
353.07 K, Liquid	307.31 J/K/mol
353.59 K, Liquid	308.24 J/K/mol
354.1 K, Liquid	307.67 J/K/mol
354.61 K, Liquid	308.41 J/K/mol
355.12 K, Liquid	308.12 J/K/mol
355.62 K, Liquid	308.6 J/K/mol and 307.85 J/K/mol
356.11 K, Liquid	307.9 J/K/mol
356.61 K, Liquid	309.76 J/K/mol
357.09 K, Liquid	308.25 J/K/mol
357.58 K, Liquid	309.03 J/K/mol
358.05 K, Liquid	309.85 J/K/mol
358.53 K, Liquid	309.78 J/K/mol
359 K, Liquid	309.73 J/K/mol
359.47 K, Liquid	309.75 J/K/mol
359.53 K, Liquid	309.84 J/K/mol
360.39 K, Liquid	310.32 J/K/mol
360.84 K, Liquid	311.4 J/K/mol
361.29 K, Liquid	311.64 J/K/mol
361.74 K, Liquid	310.99 J/K/mol
362.18 K, Liquid	311.55 J/K/mol
362.52 K, Liquid	311.51 J/K/mol
362.62 K, Liquid	311.89 J/K/mol
362.96 K, Liquid	311.52 J/K/mol
363.39 K, Liquid	310.96 J/K/mol
365.49 K, Liquid	313.17 J/K/mol
365.9 K, Liquid	312.29 J/K/mol
366.3 K, Liquid	313.49 J/K/mol
366.7 K, Liquid	314.04 J/K/mol
367.1 K, Liquid	313.11 J/K/mol
367.49 K, Liquid	314.44 J/K/mol
367.88 K, Liquid	314.05 J/K/mol
368.27 K, Liquid	313.75 J/K/mol
368.45 K, Liquid	313.66 J/K/mol
368.65 K, Liquid	313.35 J/K/mol
368.82 K, Liquid	312.67 J/K/mol
369.2 K, Liquid	314.01 J/K/mol
369.57 K, Liquid	314.85 J/K/mol
369.94 K, Liquid	314.67 J/K/mol
370.3 K, Liquid	314.64 J/K/mol
370.66 K, Liquid	315.15 J/K/mol
371.02 K, Liquid	314.85 J/K/mol
371.37 K, Liquid	314.45 J/K/mol
371.71 K, Liquid	316.2 J/K/mol
372.06 K, Liquid	315.57 J/K/mol
372.39 K, Liquid	315.1 J/K/mol
